Tests used:
NIH/3T3 cells = test: Detection of cilia (acetylated tubulin staining); type: cell-based
Description: Supplementary Figure S6 (related to Figure 5). Characterization of compound 7l (Rhonin).
(a) GLI-responsive reporter gene assay in SHH-LIGHT2 cells. (b) Influence of Rhonin on the expression of Alpl. C3H10T1/2 cells were treated with 1.5 µM purmorphamine and the compounds for 96 h prior to RT-qPCR to detect Alpl mRNA levels. Data were normalzed to Gapdh and Ap3d1 gene levels and are mean values (n = 3) ± SD. (c) Detection of cilia in NIH/3T3 cells. NIH/3T3 cells were cultured in serum reduced (0.5 % FCS) medium for 24 h to induce cilia formation, followed by a pre-treatment of cells with different concentrations of 7l or Vismodegib or DMSO as a control in serum reduced medium. After another 24h cells were treated with 2 µM purmorphamine or DMSO as a control and with different concentrations of 7l, or Vismodegib or DMSO as a control for 24 h. […]
cilia were stained with an antibody against acetylated tubulin. SMO was marked with an anti-SMO antibody and DAPI was used to stain the nuclei. For quantification of cilia, at least 100 cilia per condition and biological replicate were analyzed for the intensity of anti-acetylated tubulin antibody staining. […] Statistical significance was evaluated using an unpaired t-test with a confidence interval of 95 % (p ≤ n.s.). […]

RHOGDI1 = molecular target: T1, RHOGDI1 (Homo sapiens, UniProt P52565); test: Limited proteolysis mass spectrometry (LiP-MS); type: binding; conditions: 100 μM compound
T1 construct: GST; made in house; host or cells: E. coli (XL1-Blue / BL21)

[1] = molecular target: T2, RHOGDI1-mediated extraction of RHOA (Homo sapiens, UniProt P52565); test: Liposome sedimentation assay: displacement of prenylated GDP-bound RHOA by GST-RHOGDI1; type: biochemical; conditions: 50 μM compound
T2 construct: made in house; host or cells: RHOGDI1: E. coli; prenylated RHOA: insect cells (TNAO38)
Description: (§1) Supplementary Figure S4. Compound 7a impairs RHOGDI1 function. (a) Assay setup for the liposome sedimentation assay. (b) Displacement of prenylated GDP‐bound RAC1 from synthetic liposomes by GST-RHOGDI1 in the presence or absence of 50 μM 7a was measured using liposome floatation assay. Data is representative of three independent experiments.
(§2) Liposome-containing phase represented by fluorescent colour as result of 5% fluorescent NDB-PE was analysed by Western blotting. Data are representatives of three independent […]
(§3) experiments. (c-d) Displacement of prenylated
(§4) GDP‐bound RHO GTPases (RHOA and CDC42) from synthetic liposomes by GST‐RHOGDI1 […]
(§5) liposome sedimentation assay. Data is representative of three independent experiments. P: […]
(§6) Liposome sedimentation assay
(§7) Liposomes were prepared by self-assembly of the lipids (500 μg) containing 20% (w/w) phosphatidylethanolamine, 45% (w/w) phosphatidylcholine, 20% (w/w) phosphatidylserine, 10% (w/w) cholesterol, and 5% (w/w) phosphatidylinositol 4,5-bisphosphate. […] The resulting pellet and supernatant fractions were collected and analyzed by immunoblotting. […]
(§8) The resulting samples were centrifuged at 140000 x g for 1 h at 4 °C. The upper liposome‐ containing phase (detected by fluorescent NDB‐PE) was collected and analyzed by […]

[2] = molecular target: T3, RHOGDI1-mediated extraction of CDC42 (Homo sapiens, UniProt P52565); test: Liposome sedimentation assay: displacement of prenylated GDP-bound CDC42 by GST-RHOGDI1; type: biochemical; conditions: 50 μM compound
T3 construct: made in house; host or cells: RHOGDI1: E. coli; prenylated CDC42: insect cells (TNAO38)
Description: as §1, §2, §3, §4, §5, §6, §7, §8

T3 sequence (P52565 whole entry): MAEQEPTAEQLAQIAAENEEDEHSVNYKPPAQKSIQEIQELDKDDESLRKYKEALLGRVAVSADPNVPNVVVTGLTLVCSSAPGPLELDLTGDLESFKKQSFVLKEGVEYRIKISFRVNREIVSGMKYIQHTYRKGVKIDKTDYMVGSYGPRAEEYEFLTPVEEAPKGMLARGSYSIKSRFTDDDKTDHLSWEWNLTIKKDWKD
T2 sequence (P52565 whole entry): as above
T1 sequence (P52565 16-204): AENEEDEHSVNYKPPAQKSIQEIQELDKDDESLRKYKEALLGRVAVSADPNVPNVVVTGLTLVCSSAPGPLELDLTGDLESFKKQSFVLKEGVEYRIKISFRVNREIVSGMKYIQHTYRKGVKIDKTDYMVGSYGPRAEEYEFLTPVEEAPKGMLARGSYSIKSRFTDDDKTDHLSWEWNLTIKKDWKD

Inhibition of RHOGDI1-mediated extraction of RHOA (in words) [1] | Inhibition of RHOGDI1-mediated extraction of CDC42 (in words) [2] | Structure (SMILES) | Cilia formation (in words) (NIH/3T3 cells) | Protection of RHOGDI1 peptides from proteinase K-mediated proteolysis (in words) (RHOGDI1)
 |  | COC(=O)C1(C(CC(=O)c2cccnc2)c2ccccc2)N=C(c2ccc(Br)cc2)C2C(=O)N(C)C(=O)C21 (stereo not shown) [7l] | cilia formation was not affected | several peptides in the 179–199 amino acid sequence were protected
inhibited | inhibited | COC(=O)C1(C(CC(=O)c2ccccc2)c2ccccc2)N=C(c2ccc(Br)cc2)C2C(=O)N(C)C(=O)C21 (stereo not shown) [7a] |  | 

Source: PMC9313812, “The Pseudo‐Natural Product Rhonin Targets RHOGDI” (Angewandte Chemie (International Ed. in English), 2022)
